US9403845B2, “Pesticidally active pyridyl- and pyrimidyl- substituted pyrazole derivatives” (Syngenta Participations AG, priority 2012, dated 2016)
Values belong to the compound of their own block, whether it stands above or below them.

Key:
[1] = tested on: Myzus persicae (Green Peach Aphid); assay: Activity against Myzus persicae (green peach aphid), mixed population, feeding/residual contact activity, preventive; assay type: in vivo; details: foliar, 144 h, sprayed sunflower leaf discs, aphid population of mixed ages, 6 days incubation
Description: Activity Against Myzus persicae (Green Peach Aphid)
(Mixed Population, Feeding/Residual Contact Activity, Preventive)

[2] = tested on: Bemisia tabaci (Cotton White Fly); assay: Activity against Bemisia tabaci (cotton white fly), feeding/residual contact activity, preventive; assay type: in vivo; details: foliar, 144 h, sprayed cotton leaf discs, 12 to 18 adults, 6 days after infestation, read-out: activity (mortality and special effects)
Method: Activity Against Bemisia tabaci (Cotton White Fly)
(Feeding/Residual Contact Activity, Preventive)
Cotton leaf discs were placed on agar in a 24-well microtiter plate and sprayed with test solutions. After drying, the leaf discs were infested with 12 to 18 adults. After an incubation period of 6 days after infestation, samples were checked for mortality and special effects (e.g. phytotoxicity).

Compound: CO/N=C1\CCOc2ccc(-c3cnn(-c4cccnc4)c3)nc21 [Compound 1.008, N-methoxy-6-[1-(3-pyridyl)pyrazol-4-yl]-2,3-dihydropyrano[3,2-b]pyridin-4-imine]
mortality at 200 ppm [1]: > 80%
mortality at 200 ppm [2]: > 80%

Compound: O=C1CCCc2ccc(-c3cnn(-c4cccnc4)c3)nc21 [Compound 7.002, 2-(1-pyridin-3-yl-1H-pyrazol-4-yl)-6,7-dihydro-5H-quinolin-8-one]
mortality at 200 ppm [2]: > 80%

Compound: O=C1CCOc2ccc(-c3cnn(-c4cccnc4)c3)nc21 [Compound 7.004, 6-[1-(3-pyridyl)pyrazol-4-yl]-2,3-dihydropyrano[3,2-b]pyridin-4-one]
mortality at 200 ppm [1]: > 80%
mortality at 200 ppm [2]: > 80%

Compound: CN1Cc2ccc(-c3cnn(-c4cccnc4)c3)nc2C1=O [Compound 9.001]
mortality at 200 ppm [1]: > 80%

Compound: CC1CCc2ccc(-c3cnn(-c4cccnc4)c3)nc2C1=O (stereo not shown) [Compound 9.003]
mortality at 200 ppm [1]: > 80%
mortality at 200 ppm [2]: > 80%

melting point: 128 to 130 °C
Compound: CC(C)O/N=C1\CCCc2ccc(-c3cnn(-c4cccnc4)c3)nc21 (single isomer, unassigned) [Compound 1.005, 2-(1-pyridin-3-yl-1H-pyrazol-4-yl)-6,7-dihydro-5H-quinolin-8-one O-isopropyl-oxime]

Compound: CCO/N=C1\CS(=O)(=O)N(C)c2ccc(-c3cnn(-c4cccnc4)c3)nc21 [Compound 8.003, N-ethoxy-2-hydroxy-1-methyl-2-oxo-6-[1-(3-pyridyl)pyrazol-4-yl]pyrido[3,2-c]thiazin-4-imine]
mortality at 200 ppm [1]: > 80%
mortality at 200 ppm [2]: > 80%

Compound: CC(=O)N/N=C1\CCCc2ccc(-c3cnn(-c4cccnc4)c3)nc21 [Compound 6.007, acetic acid [2-(1-pyridin-3-yl-1H-pyrazol-4-yl)-6,7-dihydro-5H-quinolin-ylidene]-hydrazide]
mortality at 200 ppm [1]: > 80%

melting point: > 300 °C
Compound: Cn1c(=O)c2c(nc(-c3cnn(-c4cccnc4)c3)n2C)n(C)c1=O [Compound 9.002]

Compound: CO/N=C1\CCCc2sc(-c3cnn(-c4cccnc4)c3)nc21 [Compound 3.002, N-methoxy-2-[1-(3-pyridyl)pyrazol-4-yl]-6,7-dihydro-5H-1,3-benzothiazol-4-imine]
mortality at 200 ppm [1]: > 80%

Compound: CON=C1c2nc(-c3cnn(-c4cccnc4)c3)ccc2N(C)S(=O)(=O)C1(C)C (single isomer, unassigned) [Compound 8.004, N-methoxy-1,3,3-trimethyl-2,2-dioxo-6-[1-(3-pyridyl)pyrazol-4-yl]pyrido[3,2-c]thiazin-4-imine]
mortality at 200 ppm [1]: > 80%
mortality at 200 ppm [2]: > 80%
